Molecular target: T1, IL-17A/A (Homo sapiens, UniProt Q16552)
T1 construct: purchased Genscript Z03228
T1 sequence (Q16552 24-155): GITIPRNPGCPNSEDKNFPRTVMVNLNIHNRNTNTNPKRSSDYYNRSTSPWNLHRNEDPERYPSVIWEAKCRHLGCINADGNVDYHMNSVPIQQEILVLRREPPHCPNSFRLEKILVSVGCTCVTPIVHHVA
Assay: IL-17A/A HEK-Blue Cell Assay
Format: cell-based
Settings: HEK-Blue IL-17A reporter cell line, SEAP readout at A630, 20 hours incubation with IL-17A/A, top concentration 10 uM, 1 uM or 0.3 uM; for IC50: read-out: IL-17A/A inhibition (pIC50) (converted)

IC50 [nM] | SMILES | IL-17A/A inhibition (pIC50)
10 to 100 | CCC(=O)N[C@@H](C(=O)N1CC2(C1)CC(F)(F)C2)[C@@H](C)c1ccc(NC(=O)[C@@H](NC(=O)c2ccnn2CC)[C@H]2CC[C@H](C)CC2)c(F)c1 [Compound 373] | –
10 to 100 | CCC(=O)N[C@@H](C(=O)N1CCC(O)CC1)[C@@H](C)c1ccc(NC(=O)[C@@H](NC(=O)c2ccnn2CC)[C@H]2CC[C@H](C)CC2)c(F)c1 [Compound 374] | –
10 to 100 | CCn1nccc1C(=O)N[C@H](C(=O)Nc1ccc([C@H](C)[C@@H](NC(=O)c2cnns2)C(=O)N2CCN(C)CC2)cc1F)C1CCCCC1 [Compound 310] | –
< 10 | CCC(=O)N[C@@H](C(=O)N1CCN(C)CC1)[C@@H](C)c1ccc(NC(=O)[C@@H](NC(=O)c2ccoc2C(C)C)C2CCCCCC2)c(F)c1 [Compound 272] | –
10 to 100 | CCc1nonc1C(=O)N[C@H](C(=O)Nc1ccc([C@H](C)[C@@H](NC(=O)C(C)(C)F)C(=O)N2CCN(C)CC2)cc1F)[C@H]1CC[C@H](C)CC1 [Compound 495] | –
< 10 | CCc1nonc1C(=O)N[C@H](C(=O)Nc1ccc([C@H](C)[C@@H](NC(=O)C(F)(F)CC)C(=O)N2CCN(C)[C@H](C)C2)cc1F)[C@H]1CC[C@H](C)CC1 [Compound 504] | –
10 to 100 | CCCn1nccc1C(=O)N[C@H](C(=O)Nc1ccc(C[C@@H](NC(=O)CC)C(=O)N2CCN(C)CC2)cc1F)C1CCCCC1 [Compound 237] | –
10 to 100 | CCC(=O)N[C@@H](C(=O)N1CCN(C)CC1)[C@@H](C)c1ccc(NC(=O)[C@@H](NC(=O)c2cccn2CC)[C@H]2CC[C@H](C)CC2)c(F)c1 [Compound 280] | –
10 to 100 | CCC(=O)N[C@@H](C(=O)N1CCN(C)CC1)[C@@H](C)c1ccc(NC(=O)[C@@H](NC(=O)c2ccnn2CC)C2CCC(C)(C)CC2)c(F)c1 [Compound 296] | –

Continued, compound first:

SMILES | IC50 [nM] | IL-17A/A inhibition (pIC50)
CCC(=O)N[C@H](Cc1ccc(NC(=O)C(NC(=O)c2ccnn2CC)C2CCc3ccccc3C2)c(F)c1)C(=O)N1CCN(C)CC1 (stereo partly drawn) [Compound 634] | 100 to 10000 | –
CCC(=O)N[C@H](Cc1ccc(NC(=O)[C@@H](NC(=O)Cc2ccc(OC)nc2)C2CCCCC2)c(F)c1)C(=O)N1CCN(C)CC1 [Compound 711] | – | X2a (compounds were evaluated up to 1 uM and did not inhibit activity by >80%, however they showed some activity at 1 uM (less than 80% and more than 20%))
CCC(=O)N[C@@H](C(=O)N1CCN(C)CC1)[C@@H](C)c1ccc(NC(=O)C(NC(=O)c2ccnn2CC)C2CCc3ccccc32)c(F)c1 (single isomer, unassigned) [Compound 753] | – | X2b (compounds were evaluated up to 1 uM and inhibited activity at 1 uM by less than 20%)
CC(C)n1nccc1C(=O)N[C@H](C(=O)Nc1ccc([C@H](C)[C@@H](NC(=O)NC2CC2)C(=O)N2CCNCC2)cc1F)C1CCCCC1 [Compound 315] | – | A (compounds having a pIC50 of greater than or equal 8 as A)
CCC(=O)N[C@H](Cc1ccc(NC(=O)[C@@H](NC(=O)c2ccc(C(=O)NC)s2)C2CCCCC2)c(F)c1)C(=O)N1CCN(C)CC1 [Compound 779] | – | X1a (compounds were evaluated up to 10 uM and did not inhibit activity by >80%, however they showed some activity at 10 uM (less than 80% and more than 20%))
C[C@@H](c1ccc(NC(=O)[C@@H](NC(=O)C(F)(F)c2cccc(C#N)c2)C2CCCCC2)c(F)c1)[C@@H](NC(=O)CC1CC1)C(=O)N1CCN(C)CC1 [Compound 308] | < 10 | –
CCC(=O)N[C@@H](C(=O)N1CCN(C)CC1)[C@@H](C)c1ccc(NC(=O)C(NC(=O)c2nonc2CC)C2CCc3cc(F)ccc32)c(F)c1 (single isomer, unassigned) [Compound 569] | 100 to 10000 | –
CCn1nccc1C(=O)N[C@H](C(=O)Nc1ccc(C[C@@H](Nc2nc(N)nc(C(F)(F)F)n2)C(=O)N2CCN(C)CC2)cc1F)C1CCCCC1 [Compound 700] | – | X2a (compounds were evaluated up to 1 uM and did not inhibit activity by >80%, however they showed some activity at 1 uM (less than 80% and more than 20%))
CCC(=O)N[C@H](Cc1ccc(NC(=O)[C@@H](NC(=O)c2ccnn2C2CC2)C2CCCCC2)c(F)c1)C(=O)N1CCN(C)CC1 [Compound 676] | 100 to 10000 | –

Source: patent publication US12421212B2, “Substituted benzenecarboxamides as IL-17A modulators” (DiCE Alpha, Inc., priority 2019, dated 2025)
